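Following 48 hours of exposure in 96-well plates, responses at five concentrations were used to interpolate endpoints linearly. GI50 marks 50% less growth.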 The source made the active and inactive calls. Cut-off read from the data, not from the text of the source: active = GI50 up to about 1.1 µM and inactive = higher.
How the values were obtained:
Test in all cases: inhibition of tumour cell growth, NCI panel, 48 h
ACHN = tested on: ACHN
BT-549 = tested on: BT-549
HCT-116 = tested on: HCT-116
HCT-15 = tested on: HCT-15
HOP-92 = tested on: HOP-92
Hs-578T = tested on: Hs-578T
IGROV-1 = tested on: IGROV-1
K562 = tested on: K562
M14 = tested on: M14
Malme-3M = tested on: Malme-3M
NCI-H226 = tested on: NCI-H226
NCI-H23 = tested on: NCI-H23
OVCAR-4 = tested on: OVCAR-4
RXF 393 = tested on: RXF 393
SK-OV-3 = tested on: SK-OV-3
SW-620 = tested on: SW-620
U-251 = tested on: U-251
UACC-62 = tested on: UACC-62
HCC 2998 = tested on: HCC 2998

| Compound | GI50 (ACHN) | GI50 (BT-549) | GI50 (HCT-116) | GI50 (HCT-15) | GI50 (HOP-92) | GI50 (Hs-578T) | GI50 (IGROV-1) | GI50 (K562) | GI50 (M14) | GI50 (Malme-3M) | GI50 (NCI-H226) | GI50 (NCI-H23) | GI50 (OVCAR-4) | GI50 (RXF 393) | GI50 (SK-OV-3) | GI50 (SW-620) | GI50 (U-251) | GI50 (UACC-62) | GI50 (HCC 2998) |
| --- | --- | --- | --- | --- | --- | --- | --- | --- | --- | --- | --- | --- | --- | --- | --- | --- | --- | --- | --- |
| O=C(O)c1nc2nc(Cl)c(Cl)nc2[nH]1 | > 100 µM (inactive) | > 100 µM (inactive) | > 100 µM (inactive) | > 100 µM | > 100 µM (inactive) | > 100 µM (inactive) | > 100 µM (inactive) | > 100 µM (inactive) | > 100 µM (inactive) | > 100 µM (inactive) | > 100 µM (inactive) | > 100 µM (inactive) | > 100 µM (inactive) | > 100 µM (inactive) | > 100 µM (inactive) | > 100 µM (inactive) | > 100 µM (inactive) | > 100 µM (inactive) |  |
| O=C1CCC(Cc2ccc(Cl)cc2Cl)C(=O)N1 (centres undefined) | > 100 µM (inactive) | 28.6 µM (inactive) | > 100 µM (inactive) | 82.8 µM | > 100 µM (inactive) | 81.5 µM (inactive) | > 100 µM (inactive) | > 100 µM (inactive) | > 100 µM (inactive) | > 100 µM (inactive) | > 100 µM (inactive) | > 100 µM (inactive) | > 100 µM (inactive) | 32 µM (inactive) | > 100 µM (inactive) | > 100 µM (inactive) | > 100 µM (inactive) | > 100 µM (inactive) |  |
| C[C@@H](c1ccccc1)n1c(N)c(C#N)c2ccc([N+](=O)[O-])cc2c1=O | 14.9 µM (inactive) | 1.69 µM (inactive) | 14.4 µM (inactive) | 12.9 µM | 7.13 µM (inactive) | 18.2 µM (inactive) |  | 12.8 µM (inactive) |  |  | 1.68 µM (inactive) | 18.9 µM (inactive) | 14.2 µM (inactive) |  |  | 19.1 µM (inactive) | 18.7 µM (inactive) | 13.2 µM (inactive) | 15.5 µM (inactive) |
| CCOC(=O)C(NC(=O)CC)(Nc1ccc(F)cc1F)C(F)(F)F (centres undefined) | > 100 µM (inactive) | > 100 µM (inactive) | > 100 µM (inactive) | > 100 µM |  | 18.2 µM (inactive) | > 100 µM (inactive) | 60.4 µM (inactive) | > 100 µM (inactive) |  |  | > 100 µM (inactive) |  | > 100 µM (inactive) | > 100 µM (inactive) | 85.7 µM (inactive) | > 100 µM (inactive) |  | > 100 µM (inactive) |
| CCOc1ccc2c(c1)NC(=O)C(C1OC(c3ccccc3)=CC1=O)S2 (centres undefined) | 37.2 µM (inactive) | 32.1 µM (inactive) | 35.6 µM (inactive) | 21.8 µM |  | 27.5 µM (inactive) | 17 µM (inactive) | 24.2 µM (inactive) | 48.2 µM (inactive) | 21.1 µM (inactive) | 27.7 µM (inactive) | 28.2 µM (inactive) |  | 19.7 µM (inactive) | 16.1 µM (inactive) | 33.4 µM (inactive) | 19.7 µM (inactive) | 15 µM (inactive) | 14.4 µM (inactive) |
| CC(C)(C)OC(=O)n1c(-c2ccccc2F)cc(=O)c2cc3c(cc21)OCO3 | 0.186 µM (active) | 19.8 µM (inactive) | 0.0426 µM (active) | 0.0505 µM | 7.24 µM (inactive) | 0.0407 µM (active) |  |  | 1.4 µM (inactive) | 0.0526 µM (active) | 0.0791 µM (active) | 0.398 µM (active) |  |  | 0.12 µM (active) | 0.0596 µM (active) | 0.0476 µM (active) | 0.0588 µM (active) | 0.0715 µM (active) |
| NCCC(N)C(=O)O (centres undefined) | > 100 µM (inactive) | > 100 µM (inactive) | > 100 µM (inactive) | > 100 µM | > 100 µM (inactive) | > 100 µM (inactive) | > 100 µM (inactive) | > 100 µM (inactive) | > 100 µM (inactive) | > 100 µM (inactive) | > 100 µM (inactive) | > 100 µM (inactive) | > 100 µM (inactive) | > 100 µM (inactive) | > 100 µM (inactive) | > 100 µM (inactive) | > 100 µM (inactive) | > 100 µM (inactive) |  |
| CNC(=S)NNc1ncnc2c1c(-c1ccc(Cl)cc1)cn2-c1ccc(C)cc1 | 10 µM (inactive) | 14.2 µM (inactive) | 4.57 µM (inactive) | 8.39 µM | 15.5 µM (inactive) | 20.9 µM (inactive) | 10.4 µM (inactive) | 3.2 µM (inactive) | 12.6 µM (inactive) | 13.1 µM (inactive) | 24.6 µM (inactive) | 13.2 µM (inactive) | 15.6 µM (inactive) | 16.4 µM (inactive) | 15 µM (inactive) | 6.67 µM (inactive) | 11.1 µM (inactive) | 14.5 µM (inactive) |  |
| CSC(=S)NN=C1CCCCC1 | 21 µM (inactive) | 45.2 µM (inactive) | 27.2 µM (inactive) | 29.9 µM | > 100 µM (inactive) | 59 µM (inactive) | 12.7 µM (inactive) | 27.4 µM (inactive) | 13.6 µM (inactive) | 14.6 µM (inactive) | 13.9 µM (inactive) | 29.9 µM (inactive) | 34.3 µM (inactive) | > 100 µM (inactive) | > 100 µM (inactive) | 48.2 µM (inactive) | 29.1 µM (inactive) | 18.7 µM (inactive) |  |
| O=C(OC1CN2CCC1CC2)N(c1ccccc1)c1ccccc1 (centres undefined) | > 100 µM (inactive) | > 100 µM (inactive) | 47.4 µM (inactive) | > 100 µM | 34.7 µM (inactive) | > 100 µM (inactive) | > 100 µM (inactive) | 24.9 µM (inactive) | 22.9 µM (inactive) | > 100 µM (inactive) | > 100 µM (inactive) | > 100 µM (inactive) | > 100 µM (inactive) | 50.1 µM (inactive) | > 100 µM (inactive) |  | > 100 µM (inactive) | 65 µM (inactive) |  |
| CC(C)(C)c1cc(-c2ccc(-c3cc(C(C)(C)C)c(O)c(C(C)(C)C)c3)cc2)cc(C(C)(C)C)c1O | > 100 µM (inactive) | > 100 µM (inactive) | > 100 µM (inactive) | > 100 µM | > 100 µM (inactive) | > 10 µM (inactive) | > 100 µM (inactive) | > 100 µM (inactive) | > 100 µM (inactive) | > 100 µM (inactive) | > 100 µM (inactive) | > 100 µM (inactive) | > 100 µM (inactive) | > 100 µM (inactive) | > 100 µM (inactive) | > 100 µM (inactive) | > 100 µM (inactive) | > 100 µM (inactive) |  |
| CC(C)=Nn1cnc(C(=N)C#N)c1N | > 100 µM (inactive) | > 100 µM (inactive) | > 100 µM (inactive) | > 100 µM |  |  | > 100 µM (inactive) | > 100 µM (inactive) | > 100 µM (inactive) | > 100 µM (inactive) | > 100 µM (inactive) | > 100 µM (inactive) | > 100 µM (inactive) | > 100 µM (inactive) | > 100 µM (inactive) | > 100 µM (inactive) | > 100 µM (inactive) | > 100 µM (inactive) | > 100 µM (inactive) |
| CCOC(=O)NC(Nc1ccc(S(=O)(=O)Nc2ncccn2)cc1)(C(=O)OCC)C(F)(F)F (centres undefined) | > 100 µM (inactive) | > 100 µM (inactive) | > 100 µM (inactive) | > 100 µM | > 100 µM (inactive) | > 100 µM (inactive) | > 100 µM (inactive) | > 100 µM (inactive) | > 100 µM (inactive) | > 100 µM (inactive) | > 100 µM (inactive) | > 100 µM (inactive) | > 100 µM (inactive) |  | > 100 µM (inactive) | > 100 µM (inactive) | > 100 µM (inactive) | > 100 µM (inactive) | > 100 µM (inactive) |
| CC(=O)c1sc(Nc2ccc(Cl)c(Cl)c2)nc1C | 70.6 µM (inactive) | > 100 µM (inactive) | > 100 µM (inactive) | 93.8 µM |  |  | > 100 µM (inactive) |  |  | > 100 µM (inactive) | 78 µM (inactive) | > 100 µM (inactive) | > 100 µM (inactive) | 55.3 µM (inactive) | > 100 µM (inactive) | > 100 µM (inactive) | > 100 µM (inactive) | > 100 µM (inactive) | > 100 µM (inactive) |
| CCOC(=O)C1=C(C)NC(=O)NC1c1ccc(N(CCCl)CCCl)cc1Cl (centres undefined) | 14.5 µM (inactive) | 15.5 µM (inactive) | 14.3 µM (inactive) | 17.1 µM | 13 µM (inactive) | 17.1 µM (inactive) | 15.1 µM (inactive) | 12 µM (inactive) | 15.8 µM (inactive) | 14.9 µM (inactive) | 15.2 µM (inactive) | 18.7 µM (inactive) | 17.2 µM (inactive) | 17.1 µM (inactive) | 17.3 µM (inactive) | 17.9 µM (inactive) | 16.6 µM (inactive) | 10.6 µM (inactive) |  |
| O=S(=O)(O)c1ccc2c(/N=N/c3c(O)ccc4ccccc34)cccc2c1 | > 100 µM (inactive) | > 100 µM (inactive) | > 100 µM (inactive) | > 100 µM | > 100 µM (inactive) | > 100 µM (inactive) | 65.8 µM (inactive) | 34.3 µM (inactive) | > 100 µM (inactive) | > 100 µM (inactive) | > 100 µM (inactive) | > 100 µM (inactive) | > 100 µM (inactive) | > 100 µM (inactive) | > 100 µM (inactive) | > 100 µM (inactive) | > 100 µM (inactive) | > 100 µM (inactive) |  |
| O=C(c1ccc([N+](=O)[O-])cc1)C(Br)C(Br)c1ccnc2ccccc12 (centres undefined) | 4.61 µM (inactive) | 7.59 µM (inactive) | 1.92 µM (inactive) | 6.76 µM | 13.8 µM (inactive) | 6.15 µM (inactive) | 13.7 µM (inactive) | 2.83 µM (inactive) | 2.8 µM (inactive) | 12.5 µM (inactive) | 10.9 µM (inactive) | 2.55 µM (inactive) | 11.7 µM (inactive) | 8.93 µM (inactive) | 17.8 µM (inactive) | 2.09 µM (inactive) | 1.75 µM (inactive) | 9.4 µM (inactive) |  |

From ChEMBL document CHEMBL1201862, “PubChem BioAssay data set” (2004)
